Results: ChEMBL document CHEMBL1201862, “PubChem BioAssay data set” (2004)
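How tested: cells in 96-well plates exposed to compound for 48 hours at five concentrations. At the GI50, growth is halved.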 The source made the active and inactive calls. Rule as the data show it: active = GI50 up to about 1.1 µM and inactive = higher.

Legend:
Assay in all cases: DTP human tumour cell line panel, 48 h
Hs-578T = system: Hs-578T
KM-20L2 = system: KM-20L2
KM12 = system: KM12
HOP-18 = system: HOP-18
SNB-75 = system: SNB-75
NCI/ADR-RES = system: NCI/ADR-RES
NCI-H226 = system: NCI-H226
HOP-92 = system: HOP-92
K562 = system: K562
M14 = system: M14
LOX IMVI = system: LOX IMVI
IGROV-1 = system: IGROV-1
SN12C = system: SN12C
OVCAR-4 = system: OVCAR-4
ACHN = system: ACHN
DLD-1 = system: DLD-1
HCC 2998 = system: HCC 2998
MCF7 = system: MCF7
NCI-H23 = system: NCI-H23
Malme-3M = system: Malme-3M
SK-OV-3 = system: SK-OV-3
RPMI-8226 = system: RPMI-8226
BT-549 = system: BT-549
OVCAR-8 = system: OVCAR-8
RXF 393 = system: RXF 393
SF-268 = system: SF-268
A549 = system: A549
UACC-62 = system: UACC-62
OVCAR-3 = system: OVCAR-3
SW-620 = system: SW-620
LXFL 529 = system: LXFL 529
A498 = system: A498
MDA-MB-435 = system: MDA-MB-435
SR = system: SR
786-0 = system: 786-0
PC-3 = system: PC-3
DMS-114 = system: DMS-114
NCI-H460 = system: NCI-H460
UO-31 = system: UO-31
CCRF-CEM = system: CCRF-CEM
HT-29 = system: HT-29
SF-539 = system: SF-539
SF-295 = system: SF-295
HOP-62 = system: HOP-62
OVCAR-5 = system: OVCAR-5
MDA-MB-231 = system: MDA-MB-231
HL-60 = system: HL-60
SK-MEL-2 = system: SK-MEL-2
TK-10 = system: TK-10
EKVX = system: EKVX
UACC-257 = system: UACC-257
HCT-15 = system: HCT-15
MOLT-4 = system: MOLT-4
COLO 205 = system: COLO 205
SK-MEL-28 = system: SK-MEL-28
DU-145 = system: DU-145
U-251 = system: U-251
T47D = system: T47D
SNB-78 = system: SNB-78
CAKI-1 = system: CAKI-1
SNB-19 = system: SNB-19
M19-MEL = system: M19-MEL
NCI-H522 = system: NCI-H522
HCT-116 = system: HCT-116
DMS-273 = system: DMS-273
SK-MEL-5 = system: SK-MEL-5

## CCc1nc2ccc(NCCN(C)C)c3c(=O)c4ccccc4n1c23
Hs-578T
  GI50: 1780 nM (inactive)
KM-20L2
  GI50: 741 nM (active)
KM12
  GI50: 701 nM (active)
HOP-18
  GI50: 891 nM (active)
SNB-75
  GI50: 3000 nM (inactive)
NCI/ADR-RES
  GI50: 431 nM (active)
NCI-H226
  GI50: 1070 nM (active)
HOP-92
  GI50: 592 nM (active)
K562
  GI50: 468 nM (active)
M14
  GI50: 1520 nM (inactive)
LOX IMVI
  GI50: 600 nM (active)
IGROV-1
  GI50: 265 nM (active)
SN12C
  GI50: 404 nM (active)
OVCAR-4
  GI50: 1020 nM (active)
ACHN
  GI50: 417 nM (active)
DLD-1
  GI50: 533 nM (active)
HCC 2998
  GI50: 762 nM (active)
MCF7
  GI50: 2110 nM (inactive)
NCI-H23
  GI50: 1160 nM (inactive)
Malme-3M
  GI50: 1610 nM (inactive)
SK-OV-3
  GI50: 1690 nM (inactive)
RPMI-8226
  GI50: 752 nM (active)
BT-549
  GI50: 4610 nM (inactive)
OVCAR-8
  GI50: 515 nM (active)
RXF 393
  GI50: 1670 nM (inactive)
SF-268
  GI50: 711 nM (active)
A549
  GI50: 380 nM (active)
UACC-62
  GI50: 2140 nM (inactive)
OVCAR-3
  GI50: 979 nM (active)
SW-620
  GI50: 305 nM (active)
LXFL 529
  GI50: 820 nM (active)
A498
  GI50: 2540 nM (inactive)
MDA-MB-435
  GI50: 1000 nM (active)
SR
  GI50: 193 nM (active)
786-0
  GI50: 479 nM (active)
PC-3
  GI50: 800 nM (active)
DMS-114
  GI50: 1490 nM (inactive)
NCI-H460
  GI50: 230 nM (active)
UO-31
  GI50: 1240 nM (inactive)
CCRF-CEM
  GI50: 586 nM (active)
HT-29
  GI50: 489 nM (active)
SF-539
  GI50: 1670 nM (inactive)
SF-295
  GI50: 741 nM (active)
HOP-62
  GI50: 796 nM (active)
OVCAR-5
  GI50: 1670 nM (inactive)
MDA-MB-231
  GI50: 135 nM (active)
HL-60
  GI50: 1750 nM (inactive)
SK-MEL-2
  GI50: 3070 nM (inactive)
TK-10
  GI50: 2310 nM (inactive)
EKVX
  GI50: 1170 nM (inactive)
UACC-257
  GI50: 2480 nM (inactive)
HCT-15
  GI50: 456 nM
MOLT-4
  GI50: 175 nM (active)
COLO 205
  GI50: 307 nM (active)
SK-MEL-28
  GI50: 2440 nM (inactive)
DU-145
  GI50: 656 nM (active)
U-251
  GI50: 796 nM (active)
T47D
  GI50: 2590 nM (inactive)
SNB-78
  GI50: 1530 nM (inactive)
CAKI-1
  GI50: 1560 nM (inactive)
SNB-19
  GI50: 2570 nM (inactive)
M19-MEL
  GI50: 2000 nM (inactive)
NCI-H522
  GI50: 946 nM (active)
HCT-116
  GI50: 337 nM (active)

## CC1=C[P+](Cc2ccccc2)(c2ccccc2)CC1 (configuration not stated)
KM-20L2
  GI50: 94200 nM (inactive)
SNB-75
  GI50: > 100000 nM (inactive)
M14
  GI50: 77600 nM (inactive)
LOX IMVI
  GI50: > 100000 nM (inactive)
IGROV-1
  GI50: 96800 nM (inactive)
SN12C
  GI50: > 100000 nM (inactive)
DMS-273
  GI50: > 100000 nM (inactive)
SK-MEL-5
  GI50: 27000 nM (inactive)
ACHN
  GI50: > 100000 nM (inactive)
NCI-H23
  GI50: > 100000 nM (inactive)
SK-OV-3
  GI50: > 100000 nM (inactive)
RPMI-8226
  GI50: 28600 nM (inactive)
OVCAR-8
  GI50: > 100000 nM (inactive)
RXF 393
  GI50: > 100000 nM (inactive)
A549
  GI50: > 100000 nM (inactive)
UACC-62
  GI50: 66500 nM (inactive)
OVCAR-3
  GI50: 47800 nM (inactive)
LXFL 529
  GI50: 23300 nM (inactive)
SR
  GI50: 57000 nM (inactive)
786-0
  GI50: > 100000 nM (inactive)
DMS-114
  GI50: 35200 nM (inactive)
NCI-H460
  GI50: > 100000 nM (inactive)
HT-29
  GI50: 77300 nM (inactive)
OVCAR-5
  GI50: > 100000 nM (inactive)
HL-60
  GI50: 36300 nM (inactive)
TK-10
  GI50: 98900 nM (inactive)
UACC-257
  GI50: 21500 nM (inactive)
HCT-15
  GI50: 88100 nM
MOLT-4
  GI50: > 100000 nM (inactive)
COLO 205
  GI50: 41500 nM (inactive)
SK-MEL-28
  GI50: 81100 nM (inactive)
M19-MEL
  GI50: 29900 nM (inactive)
NCI-H522
  GI50: 65200 nM (inactive)
